The values below are quoted from earlier work in US20220233487A1, “PREPARATION FOR USE IN WEIGHT MANAGEMENT COMPRISING OMEGA-3 FATTY ACID SALTS AND BASIC AMINO ACIDS” (Evonik Operations GmbH, priority 2019, published 2022).

SMILES strings stand for the structures.

`N=C(N)NCCC[C@H](N)C(=O)O` [L-arginine]: the “pKa-values: pKCOOH” value is “pKCOOH: 2.0”.
